Here are results for seven compounds from ChEMBL document CHEMBL2396528, “Synthesis of new conjugated coumarin-benzimidazole hybrids and their anticancer activity” (2013).

Each structure is given as a SMILES string. Active and inactive are the calls of the source. The calls are words filed in the database; no cut-off is given here. A value given as a limit tells only on which side of the number the result lay.

Format in all cases: functional
The subject of one experiment is T47D. The experiment in a line: Cytotoxicity against human T47D cells assessed as growth inhibition at 10 uM after 48 hrs by SRB assay relative to control. Particulars: read-out: GI.
The test system of another experiment is Hs-578T. The experiment in a line: Cytotoxicity against human Hs578T cells assessed as growth inhibition at 10 uM after 48 hrs by SRB assay relative to control. The note with it: for inhibition of growth at 10 µM: read-out: GI.
For a further experiment, the system named is SN12C. The experiment in a line: Cytotoxicity against human SN12C cells assessed as growth inhibition at 10 uM after 48 hrs by SRB assay relative to control. Particulars: read-out: GI.
A further experiment relates to CAKI-1. Briefly: Cytotoxicity against human Caki1 cells assessed as growth inhibition at 10 uM after 48 hrs by SRB assay relative to control. The note with it: CAKI-1, 48 h, read-out: GI.
Another experiment relates to ACHN. Briefly: Cytotoxicity against human ACHN cells assessed as growth inhibition at 10 uM after 48 hrs by SRB assay relative to control. The note with it: read-out: GI.
For the next experiment, the system named is OVCAR-8. Briefly: Cytotoxicity against human OVCAR8 cells assessed as growth inhibition at 10 uM after 48 hrs by SRB assay relative to control. The note with it: OVCAR-8, 48 h, read-out: GI.
The subject of a further experiment is SK-MEL-28. Briefly: Cytotoxicity against human SK-MEL-28 cells assessed as growth inhibition at 10 uM after 48 hrs by SRB assay relative to control. Particulars: SK-MEL-28, 48 h, read-out: GI.
The next experiment deals with HCT-15. The experiment in a line: Cytotoxicity against human HCT15 cells assessed as growth inhibition at 10 uM after 48 hrs by SRB assay relative to control. Particulars: HCT-15, 48 h, read-out: GI.
For the next experiment, the system named is KM12. Briefly: Cytotoxicity against human KM12 cells assessed as growth inhibition at 10 uM after 48 hrs by SRB assay relative to control. The note with it: KM12, 48 h, read-out: GI.
The next experiment has as its system HCC 2998. Briefly: Cytotoxicity against human HCC2998 cells assessed as growth inhibition at 10 uM after 48 hrs by SRB assay relative to control. The note with it: for inhibition of growth at 10 µM: HCC 2998, 48 h, read-out: GI.
The subject of the next experiment is NCI-H522. The experiment in a line: Cytotoxicity against human NCI-H522 cells assessed as growth inhibition at 10 uM after 48 hrs by SRB assay relative to control. Particulars: NCI-H522, 48 h, read-out: GI.
A further experiment has as its system NCI-H23. Briefly: Cytotoxicity against human NCI-H23 cells assessed as growth inhibition at 10 uM after 48 hrs by SRB assay relative to control. The note with it: NCI-H23, 48 h, read-out: GI.
The test system of another experiment is NCI-H226. Briefly: Cytotoxicity against human NCI-H226 cells assessed as growth inhibition at 10 uM after 48 hrs by SRB assay relative to control. Particulars: NCI-H226, 48 h, read-out: GI.
For a further experiment, the system named is A549. The experiment in a line: Cytotoxicity against human A549 cells assessed as growth inhibition at 10 uM after 48 hrs by SRB assay relative to control. Particulars: A549, 48 h, read-out: GI.
The next experiment has as its system MOLT-4. The experiment in a line: Cytotoxicity against human MOLT4 cells assessed as growth inhibition at 10 uM after 48 hrs by SRB assay relative to control. The note with it: MOLT-4, 48 h, read-out: GI.
A further experiment concerns HL-60(TB). Briefly: Cytotoxicity against human HL-60(TB) cells assessed as growth inhibition at 10 uM after 48 hrs by SRB assay relative to control. The note with it: HL-60, 48 h, read-out: GI.

Turning to `O=c1oc2cc(NCCN3CCOCC3)ccc2cc1-c1nc2ccccc2[nH]1`, the inhibition of growth at 10 µM with T47D, with Hs-578T, in the experiment on SN12C, in the experiment with CAKI-1, with ACHN and in the experiment with OVCAR-8 was less than 20% throughout. Moreover, the inhibition of growth at 10 µM with SK-MEL-28, in the experiment on HCT-15, with KM12, in the experiment on HCC 2998, in the experiment with NCI-H522 and with NCI-H23 was less than 20% each time. The inhibition of growth at 10 µM with NCI-H226, in the experiment on A549, in the experiment on MOLT-4 and with HL-60(TB) was less than 20% throughout.

Take `NCCNc1ccc2cc(-c3nc4ccccc4[nH]3)c(=O)oc2c1`: the inhibition of growth at 10 µM in the experiment with T47D, with Hs-578T, in the experiment on SN12C, in the experiment on CAKI-1, in the experiment with ACHN and in the experiment on OVCAR-8 was less than 20% each time. For the same compound, the inhibition of growth at 10 µM in the experiment with SK-MEL-28 was less than 20%; in the experiment on HCT-15, 20.6%; in the experiment with KM12 it was less than 20%; with HCC 2998, less than 20%; in the experiment on NCI-H522 it was less than 20%; in the experiment on NCI-H23, less than 20%. Further, the inhibition of growth at 10 µM in the experiment on NCI-H226, in the experiment on A549, in the experiment with MOLT-4 and with HL-60(TB) was less than 20% each time.

For `O=c1oc2cc(Br)ccc2cc1-c1nc2ccccc2[nH]1`, the inhibition of growth at 10 µM is 28.4% in the experiment with T47D; 25.1% in the experiment on Hs-578T; less than 20% with SN12C; less than 20% in the experiment on CAKI-1; less than 20% with ACHN; less than 20% in the experiment on OVCAR-8. Further, the inhibition of growth at 10 µM with SK-MEL-28 was less than 20%; in the experiment on HCT-15, less than 20%; in the experiment with KM12, less than 20%; in the experiment on HCC 2998, less than 20%; in the experiment on NCI-H522 it was 20.6%; in the experiment on NCI-H23 it was less than 20%. In addition, the inhibition of growth at 10 µM in the experiment on NCI-H226, in the experiment on A549, in the experiment with MOLT-4 and in the experiment on HL-60(TB) was less than 20% throughout.

Consider `O=c1oc2cc(N3CCOCC3)ccc2cc1-c1nc2ccccc2[nH]1`, for which the inhibition of growth at 10 µM with T47D, with Hs-578T, in the experiment with SN12C, with CAKI-1, in the experiment on ACHN and in the experiment with OVCAR-8 was less than 20% throughout. Further, the inhibition of growth at 10 µM in the experiment on SK-MEL-28, with HCT-15, in the experiment with KM12, in the experiment on HCC 2998, with NCI-H522 and in the experiment with NCI-H23 was less than 20% each time. Besides, the inhibition of growth at 10 µM in the experiment with NCI-H226, in the experiment on A549, with MOLT-4 and in the experiment on HL-60(TB) was less than 20% in each case.

For `O=c1oc2cc(NCCO)ccc2cc1-c1nc2ccccc2[nH]1`, the inhibition of growth at 10 µM is 70.7% in the experiment with T47D; less than 20% with Hs-578T; 22.4% in the experiment with SN12C; 22.4% in the experiment with CAKI-1; less than 20% with ACHN; 31.4% in the experiment on OVCAR-8. Further, the inhibition of growth at 10 µM with SK-MEL-28 was less than 20%; with HCT-15 it was 72.7%; in the experiment with KM12 it was less than 20%; with HCC 2998, less than 20%; in the experiment with NCI-H522 it was 23.7%; in the experiment on NCI-H23 it was 32.9%. In addition, the inhibition of growth at 10 µM in the experiment with NCI-H226 was 30%; in the experiment with A549 it was less than 20%; with MOLT-4, 38%; in the experiment on HL-60(TB), 80.5%.

As for `CN1CCN(c2ccc3cc(-c4nc5ccccc5[nH]4)c(=O)oc3c2)CC1`, the inhibition of growth at 10 µM in the experiment on T47D was 23.1%; in the experiment with Hs-578T, less than 20%; in the experiment with SN12C it was less than 20%; with CAKI-1, less than 20%; with ACHN it was less than 20%; in the experiment on OVCAR-8 it was less than 20%. The inhibition of growth at 10 µM is less than 20% in the experiment on SK-MEL-28; less than 20% in the experiment on HCT-15; less than 20% in the experiment with KM12; less than 20% in the experiment on HCC 2998; less than 20% in the experiment with NCI-H522; 25.5% in the experiment with NCI-H23. In addition, the inhibition of growth at 10 µM with NCI-H226 was less than 20%; in the experiment with A549, less than 20%; with MOLT-4, less than 20%; with HL-60(TB), 27.1%.

Consider `O=c1[nH]cc(F)c(=O)[nH]1` [FLUOROURACIL], for which the inhibition of growth at 10 µM came to 56.7% with T47D; 54% with SN12C; 39.4% in the experiment with CAKI-1; 39.3% in the experiment with ACHN; 19.5% in the experiment on SK-MEL-28; 26.5% in the experiment with HCT-15. For the same compound, the inhibition of growth at 10 µM is 40.7% with KM12; 58% in the experiment with NCI-H522; 39% with NCI-H23; 69.5% in the experiment on NCI-H226; 34.2% in the experiment with A549; 43.1% with MOLT-4. The inhibition of growth at 10 µM in the experiment on HL-60(TB) is 47.9%. In addition, the “growth inhibition (GI)” value in the experiment with Hs-578T and in the experiment on HCC 2998 was “Active” in each case.
